# Assay results published in ChEMBL document CHEMBL1150471, “Tritylated oncolytics as prodrugs” (Bioorg Med Chem Lett, 1995).
# The source made the active and inactive calls. The rule behind the calls is not given here.
# Experiments:
# CCRF-CEM = test: In vitro cytotoxicity against human leukemia cell line CCRF-CEM; type: functional, cell-based
# Homo sapiens [1] = test: In vivo tumor inhibition against human colon (HC-1) xenograft after i.p. administration to C3H nude mice on day 1; type: functional; design: concentration or dose not given beside the values
# Homo sapiens [2] = test: In vivo tumor inhibition against human colon (HC-1) xenograft after i.p. administration to C3H nude mice on days 7; type: functional; design: concentration or dose not given beside the values
# Homo sapiens [3] = test: In vivo tumor inhibition against human colon (HC-1) xenograft after i.p. administration to C3H nude mice on days 10; type: functional; design: concentration or dose not given beside the values
# Homo sapiens [4] = test: In vivo tumor inhibition against human colon (HC-1) xenograft after i.p. administration to C3H nude mice on days 4; type: functional; design: concentration or dose not given beside the values
# [5] = Half life at pH 7.4; type: ADME; details: buffer
# [6] = Half life at pH 6.4; type: ADME; details: buffer
# [7] = Half life at pH 5.4; type: ADME; details: buffer
# Homo sapiens [8] = test: Effective dose for the dose dependent inhibition of tumor growth against human colon (HC-1) xenograft in mice; type: functional
# [9] = Half life at pH 7.4; no dissociation up to day 33; type: ADME; details: buffer
# [10] = Half life at pH 6.4; no dissociation up to day 33; type: ADME; details: buffer
# [11] = Half life at pH 5.4; no dissociation up to day 33; type: ADME; details: buffer
# Homo sapiens [12] = test: Effective dose for the dose dependent inhibition of tumor growth against human colon (HC-1) xenograft in mice; Inactive; type: functional, organism-based
# Homo sapiens [13] = test: In vivo inhibition against human colon (HC-1) xenograft at a dose of 20 mg/kg; type: functional
# Homo sapiens [14] = test: In vivo inhibition against human colon (HC-1) xenograft at a dose of 75 mg/kg; type: functional
# Homo sapiens [15] = test: In vivo inhibition against human colon (HC-1) xenograft at a dose of 37.5 mg/kg; type: functional
# Homo sapiens [16] = test: In vivo inhibition against human colon (HC-1) xenograft at a dose of 50 mg/kg; type: functional
SMILES,half-life [5] [h],half-life [6] [h],half-life [7] [h],T1/2 [9],T1/2 [10],T1/2 [11],IC50 (CCRF-CEM) [µg/mL],Inhibition (Homo sapiens [1]) [%],Inhibition (Homo sapiens [2]) [%],Inhibition (Homo sapiens [3]) [%],Inhibition (Homo sapiens [4]) [%],ED50 (Homo sapiens [8]) [mg/kg],ED50 (Homo sapiens [12]),inhibition in vivo at 20 mg/kg (Homo sapiens [13]) [%],inhibition in vivo at 75 mg/kg (Homo sapiens [14]) [%],inhibition in vivo at 37.5 mg/kg (Homo sapiens [15]) [%],inhibition in vivo at 50 mg/kg (Homo sapiens [16]) [%]
COc1ccc(C(Nc2nc(N)nc3c2ncn3[C@@H]2O[C@H](CO)[C@@H](O)C2(F)F)(c2ccc(C)cc2)c2ccc(C(=O)NC(C)C)cc2)cc1 (stereo not given in full),–,–,–,–,–,–,0.1,>95,>95,>95,>95,–,–,–,–,–,–
COc1ccc(C(Nc2nc(N)nc3c2ncn3[C@@H]2O[C@H](CO)[C@@H](O)C2(F)F)(c2ccccc2)c2ccc(C(=O)NC(C)C)cc2)cc1 (stereo not given in full),800,547,16.7,–,–,–,0.1,>95,>95,>95,>95,–,–,–,–,–,–
Cc1ccc(C(Nc2nc(N)nc3c2ncn3[C@@H]2O[C@H](CO)[C@@H](O)C2(F)F)(c2ccccc2)c2ccc(C(=O)NC(C)C)cc2)cc1 (stereo not given in full),–,–,–,–,–,–,0.8,>95,>95,>95,>95,30,–,–,–,–,–
Nc1nc(N)c2ncn([C@@H]3O[C@H](CO)[C@@H](O)C3(F)F)c2n1,–,–,–,–,–,–,0.024,–,–,–,–,–,–,> 95,> 95,> 95,> 95

# Now from value to molecule, other results behind:
half-life [5] [h],half-life [6] [h],half-life [7] [h],T1/2 [9],T1/2 [10],T1/2 [11],SMILES,IC50 (CCRF-CEM) [µg/mL],Inhibition (Homo sapiens [1]) [%],Inhibition (Homo sapiens [2]) [%],Inhibition (Homo sapiens [3]) [%],Inhibition (Homo sapiens [4]) [%],ED50 (Homo sapiens [8]) [mg/kg],ED50 (Homo sapiens [12]),inhibition in vivo at 20 mg/kg (Homo sapiens [13]) [%],inhibition in vivo at 75 mg/kg (Homo sapiens [14]) [%],inhibition in vivo at 37.5 mg/kg (Homo sapiens [15]) [%],inhibition in vivo at 50 mg/kg (Homo sapiens [16]) [%]
146,14.8,3.71,–,–,–,COc1ccc(C(Nc2nc(N)nc3c2ncn3[C@@H]2O[C@H](CO)[C@@H](O)C2(F)F)(c2ccc(OC)cc2)c2ccc(C(=O)NC(C)C)cc2)cc1,0.078,>95,>95,>95,>95,–,–,–,–,–,–
–,–,–,no dissociation up to day 33,no dissociation up to day 33,no dissociation up to day 33,CC(C)NC(=O)c1ccc(C(Nc2nc(N)nc3c2ncn3[C@@H]2O[C@H](CO)[C@@H](O)C2(F)F)(c2ccccc2)c2ccccc2)cc1,1.7,>95,>95,>95,>95,–,inactive,–,–,–,–
133,23.3,2.35,–,–,–,COc1ccc(C(Nc2nc(N)nc3c2ncn3[C@@H]2O[C@H](CO)[C@@H](O)C2(F)F)(c2ccc(OC)cc2)c2cccc(C(=O)NC(C)C)c2)cc1,0.084,–,–,–,–,–,–,–,–,–,–
